ChEMBL document CHEMBL1201862, “PubChem BioAssay data set” (2004)
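The compound was tested at five concentrations on cells cultured in 96-well plates, with a 48-hour exposure period. Abbreviation: GI50, concentration required for 50% inhibition of growth.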 The source made the active and inactive calls. No stated cut-off is given here; in the data, active = GI50 up to about 1.1 µM and inactive = higher.

Experiments:
Experiment in all cases: DTP human tumour cell line panel, 48 h
SNB-78 = test system: SNB-78
SR = test system: SR
HOP-18 = test system: HOP-18
DMS-273 = test system: DMS-273
XF498 = test system: XF498
CAKI-1 = test system: CAKI-1
OVCAR-5 = test system: OVCAR-5
HCT-116 = test system: HCT-116
ACHN = test system: ACHN
SF-295 = test system: SF-295
NCI-H23 = test system: NCI-H23
M19-MEL = test system: M19-MEL
OVCAR-8 = test system: OVCAR-8
BT-549 = test system: BT-549
T47D = test system: T47D
RXF 393 = test system: RXF 393
MDA-MB-231 = test system: MDA-MB-231
DU-145 = test system: DU-145
MDA-N = test system: MDA-N
MCF7 = test system: MCF7

Measured: GI50

CCCCCCCCCCCCCCCC(=O)OC1C(O)C(CO)OC(OC)C1NC(=O)N(CCCl)N=O (stereo not drawn)
inactive: SNB-78 19.5 µM | SR 4.46 µM | HOP-18 15.8 µM | DMS-273 13.1 µM | XF498 14.6 µM | CAKI-1 32 µM | OVCAR-5 16.5 µM | HCT-116 14.3 µM | ACHN 8.81 µM | SF-295 10.6 µM | NCI-H23 7.94 µM | M19-MEL 15.9 µM | OVCAR-8 17.8 µM

CO/N=C1/c2sccc2[C@H](NC(=O)C(F)(F)F)[C@@H]1O
inactive: SR > 100 µM | BT-549 > 100 µM | T47D > 100 µM | RXF 393 > 100 µM | MDA-MB-231 > 100 µM | CAKI-1 > 100 µM | OVCAR-5 > 100 µM | HCT-116 > 100 µM | DU-145 > 100 µM | MDA-N > 100 µM | MCF7 > 100 µM | SF-295 > 100 µM | NCI-H23 > 100 µM | OVCAR-8 > 100 µM

CCCCCCCCCOCC(COP(=O)([O-])OCC[N+](C)(C)C)OC (stereo not drawn)
inactive: SNB-78 > 100 µM | HOP-18 > 100 µM | DMS-273 > 100 µM | RXF 393 > 100 µM | XF498 > 100 µM | CAKI-1 > 100 µM | OVCAR-5 > 100 µM | HCT-116 > 100 µM | MCF7 68.7 µM | SF-295 > 100 µM | NCI-H23 > 100 µM | M19-MEL > 100 µM | OVCAR-8 > 100 µM

COc1ccc(N2CN(C)CSC2=S)cc1
inactive: BT-549 75.5 µM | T47D 54 µM | RXF 393 > 100 µM | MDA-MB-231 > 100 µM | CAKI-1 > 100 µM | OVCAR-5 71.9 µM | HCT-116 71.3 µM | DU-145 > 100 µM | ACHN > 100 µM | MCF7 89.7 µM | SF-295 23.4 µM | NCI-H23 > 100 µM | OVCAR-8 > 100 µM

CC(=O)CC(=O)CCC(=O)O [SUCCINYLACETONE]
inactive: SNB-78 > 100 µM | SR > 100 µM | HOP-18 > 100 µM | DMS-273 > 100 µM | RXF 393 > 100 µM | XF498 > 100 µM | CAKI-1 > 100 µM | OVCAR-5 > 100 µM | HCT-116 > 100 µM | ACHN > 100 µM | SF-295 > 100 µM | NCI-H23 > 100 µM | M19-MEL > 100 µM | OVCAR-8 > 100 µM

O=C1CNC(=O)N1 [HYDANTOIN]
inactive: SNB-78 > 1120 µM | HOP-18 > 1120 µM | DMS-273 > 1120 µM | RXF 393 > 1120 µM | XF498 > 11.2 µM | CAKI-1 > 1120 µM | OVCAR-5 > 1120 µM | HCT-116 > 1120 µM | MCF7 > 1120 µM | SF-295 > 1120 µM | NCI-H23 > 1120 µM | M19-MEL > 1120 µM | OVCAR-8 > 1120 µM

COC(=O)Cc1c(-c2c(CC(=O)OC)c3ccccc3n2C2OC(COC(C)=O)C(OC(C)=O)C(OC(C)=O)C2OC(C)=O)[nH]c2ccccc12 (stereo not drawn)
inactive: SR > 100 µM | BT-549 > 100 µM | MDA-MB-231 43.2 µM | CAKI-1 > 100 µM | OVCAR-5 > 100 µM | HCT-116 > 100 µM | DU-145 > 100 µM | MDA-N > 100 µM | SF-295 90.8 µM | NCI-H23 > 100 µM

O=C(N/N=C\c1cccc2ccccc12)Nc1ccccc1
inactive: SR > 100 µM | BT-549 > 100 µM | T47D > 100 µM | RXF 393 > 100 µM | CAKI-1 > 100 µM | OVCAR-5 > 100 µM | HCT-116 > 100 µM | DU-145 > 100 µM | MDA-N > 100 µM | MCF7 > 100 µM | SF-295 > 100 µM | NCI-H23 > 100 µM | OVCAR-8 > 100 µM

CCCOC1OC(CS(=O)(=O)O)C(OC(C)=O)C(OC(C)=O)C1OC(C)=O (stereo not drawn)
inactive: SR > 100 µM | BT-549 > 100 µM | T47D > 100 µM | RXF 393 > 100 µM | MDA-MB-231 > 100 µM | CAKI-1 > 100 µM | OVCAR-5 > 100 µM | HCT-116 > 100 µM | DU-145 > 100 µM | MDA-N > 100 µM | MCF7 > 100 µM | SF-295 > 100 µM | NCI-H23 > 100 µM | OVCAR-8 > 100 µM

Cc1ccc2c(=O)c3ccccc3sc2c1
inactive: SR 79.4 µM | HOP-18 6.19 µM | DMS-273 > 100 µM | RXF 393 > 100 µM | CAKI-1 45.4 µM | OVCAR-5 > 100 µM | HCT-116 > 100 µM | ACHN > 100 µM | NCI-H23 > 100 µM | M19-MEL > 100 µM | OVCAR-8 > 100 µM
